Test results: US20170218375A1, “MORPHOLINOS, MORPHOLINO UPREGULATING, AND ASSOCIATED METHODS” (University of Utah Research Foundation, priority 2011, published 2017)
{Dendrimer} = dendrimer conjugate (vivo-morpholino)

Experiments:
[1] = system: suture-induced corneal neovascularization and lymphangiogenesis; experiment: Mouse corneal suture model (CD31 and LYVE-1 stained cornea flatmount); type: in vivo; conditions: for suppression of suture-induced neovascularization: CD31; for suppression of lymphangiogenesis: LYVE-1
Protocol: In another aspect, a corneal suture model can be used to evaluate angiogenesis. For the one week subarm, each morpholino or DPBS was injected subconjunctivally one day prior to and four days after suturing; the corneas were harvested at seven days post suturing. For the two week subarm, each morpholino or DPBS was injected subconjunctivally one day prior and four, seven and ten days after suturing; the corneas were harvested at fourteen days. CD31 and LYVE-1 were used as markers of neovascularization and lymphangiogenesis, respectively. FIGS. 10 and 11 representative images of CD31 stained corneas at one week and LYVE-1 stained corneas at two weeks, respectively.
Under anesthesia, 15 μl of moVEGFR2_MOe13 (40 ng/μl), STD_MO (40 ng/μl) or DPBS was injected subconjunctivally into two different places one day prior to the placement of 2 symmetrical 11-0 nylon sutures, followed by re-injection at four days after suture placement. Eyes were harvested 7 days after suture placement. In a second group, 15 μl of moVEGFR2_MOe13 (40 ng/μl), STD_MO (40 ng/μl) or DPBS was injected subconjunctivally into two different places one day prior to the placement of 2 symmetrical 11-0 nylon sutures. Subconjunctival injections were repeated at four, seven and ten days after suture placement. Eyes were harvested 14 days after suture placement. The corneas were fixed in acetone at room temperature for 20 minutes. After 4 washes in PBST (0.1% Tween20/PBS), the corneas were incubated in 3% BSA/PBS at 4° C. for 3 days. To detect CD31 and LYVE1, corneas were incubated in 3% BSA/PBS with FITC-conjugated rat anti-CD31 antibody (553372, 1:500, BD Biosciences, San Jose, Calif.) or rabbit anti-LYVE-1 (ab14917, 1:200, Abcam, Cambridge, Mass.) overnight at 4° C. After 3 washes in PBST, the corneas were incubated in 3% BSA/PBS with Alexa Fluor® 546 conjugated goat anti-rabbit IgG (A11071, 1:2000, Invitrogen Corporation, Carlsbad, Calif.) for one hour at room temperature. After 4 washes in PBST, corneas were mounted on slide glass with Fluoro-gel (Electron Microscopy Sciences, Hatfield, Pa.). Fluorescence was observed by fluorescence microscope (Carl Zeiss MicroImaging, Inc., Thornwood, N.Y.). The data for each suture was calculated by ImageJ separately. Areas where sutures had fallen out were not included in the final calculations.

mbVEGFR2 mRNA = experiment: RT-PCR of mbVEGFR2 mRNA in mouse MS-1 cell line; type: cell-based
From the text: Because VEGFR2_MOe13 decreases mbVEGFR2 and increases sVEGFR2, it is expected that VEGFR2_MOe13 can inhibit angiogenesis and lymphangiogenesis in vivo. To study the effect of VEGFR2_MOe13 in animal models, moVEGFR2_MOe13 was created that targets the exon13-intron13 junction of the mouse VEGFR2 gene. By RT-PCR analysis, it was found moVEGFR2_MOe13 increased sVEGFR2 mRNA and decreased mbVEGFR2 mRNA in the mouse MS-1 cell line (FIG. 7A). […] FIGS. 7(f, g) show the mean area of corneal neovascularization and lymphangiogenesis respectively (n=13-16). Risk factors (p-value) were calculated by two-tail student's t-test (*: p<0.05, **p<0.01, ***p<0.001). Error bar is ±s.e.m.
Each morpholino oligomer was purchased from Gene Tools (Philomath, Oreg.). The sequences of each morpholino oligomer and primers for PCR are listed in supplemental Table. […] The cells were washed three times and fluorescence was detected by a FACScan Analyzer (BD Biosciences, San Jose, Calif.). […]
cDNAs were synthesized from 400 ng total RNA using Omniscript RT kit (Qiagen, Valencia, Calif.) and Oligo-dT primer(dT20) according to the manufacturer's instructions. Real-time PCR was performed using QuantiTect SYBR Green PCR Kit (Qiagen, Valencia, Calif.) and 1 μl of cDNA. […]

## 5′-cacccagggatgcctccatacCTAG-3′ (antisense CACCCAGGGATGCCTCCATACCTAG; all phosphorodiamidate morpholino (PMO), 3' {Dendrimer}) [moVEGFR2_MOe13, morpholino that targets the exon13-intron13 junction of the mouse VEGFR2 gene; in vivo conjugated with a dendrimer (vivo-morpholino)]
[1]; 1 week, 15 μl of 40 ng/μl subconjunctivally one day prior to and four days after suturing, compared to DPBS, p<0.001
  suppression of suture-induced neovascularization: 52.2%
[1]; 2 weeks after suture placement, compared to DPBS, p<0.05
  suppression of lymphangiogenesis: 27.8%
[1]; 2 weeks, 15 μl of 40 ng/μl subconjunctivally one day prior and four, seven and ten days after suturing, compared to DPBS, p<0.05
  suppression of suture-induced neovascularization: 29.6%
[1]; one week after suture placement
  suppression of lymphangiogenesis: did not suppress
mbVEGFR2 mRNA
  mbVEGFR2 mRNA by RT-PCR: decreased
